The source of these data is patent US20260315487A1, “IKK-ALPHA INHIBITORS” (Cancer Research Technology Limited, priority 2023, published 2026).

Usually inhibition stands for the change of the read-out against control, counted positive when it falls. For orientation: Ki means a dissociation constant, usually derived from enzyme kinetics or from competition with a known ligand. Low readings indicate tighter binding, high ones weaker binding. A word on the Cmax: it is the maximum level reached in the sampled fluid or tissue. By Tmax is commonly meant the time at which the peak concentration occurs. Usually Vss stands for a proportionality between amount in the body and measured concentration, not a real space.

SMILES strings stand for the structures. Where two headings read alike, the source gives them in different places. Where only a bound is given, the exact number is not on record here.

One data set concerns the target CDK5 (Homo sapiens, UniProt Q00535). Nature of the data set: kinome profiling at 1 μM, CDK5. It is filed as biochemical. To be noted: read-out: % inhibition of CDK5. From the text: (§1) We profiled three compounds from the series across the kinome (FIG. 11). […] To identify the structural drivers for CDK inhibition, we obtained X-ray crystal structures of 5 y and 6 g SU1336 and SU1349 with CDK-2 (FIG. 12A) to potentially identify possible routes towards introducing selectivity for IKKα over the CDK enzymes as well as IKKβ. […] All three derivatives form complexes with CDK2 with the pyrrolo[2,3 -b]pyridine H-bonding to GK+3 (Leu 83 ) and the aminoindazole projected towards the G-loop (FIG. 12A), forming H-bonds with Glu 51 and Lys 33 at the back of the pocket. The adoption of the 4 SU1253 -type orientation, rather than the flipped pose observed in IKKα, is probably facilitated by Tr-stacking between the aminoindazole and the GK residue, which in the CDKs is Phe, rather than Met. […] For 6 g SU1349, the hydrophobic pendant benzyloxy group points out into solvent, but can form face-to-edge Tr-Tr interactions with Phe 82 and His 84 from the hinge. Exchanging the hydrophobic pendant benzyloxy group for the morpholinoethyl-containing substituent in 5 y SU1336 removes any direct interaction with these hinge residues, preferring to sit in a more solvent-exposed position, as befits a basic side chain that will be protonated at physiological pH (FIG. 12B).
(§2) Black, 4 SU1253; grey, 5 r SU1261; diagonal stripes, 6 g SU1349. […] All tested compounds (4 SU1253, 5 r SU1261 and 6 g SU1349 ) inhibited CDK5 and CDK9 with >80 %.

A further data set concerns mouse hepatocytes. As to the kind of experiment: mouse hepatocyte clearance (cryopreserved pooled mouse CD1 hepatocytes). It is filed as in vitro ADME. To be noted: mouse hepatocytes. As for the experimental part:
Pharmacokinetic studies were contracted to Sygnature Discovery Limited. Intrinsic clearance and half life were determined using cryopreserved pooled mouse CD1 hepatocytes. Test compounds were analysed at 1 μM in Williams Media E buffer (0.01 % DMSO) at a cell density of 0.5×10^6 cells mL^−1 . Cells were incubated at 37° C. for one hour with shaking and compound depletion was measured by LC-MS/MS at six timepoints (0.25, 5, 10, 20, 40, and 60 minutes).

For data set [1], the target named is T1, IKKα (Homo sapiens, UniProt O15111).
T1 sequence (O15111 1-745): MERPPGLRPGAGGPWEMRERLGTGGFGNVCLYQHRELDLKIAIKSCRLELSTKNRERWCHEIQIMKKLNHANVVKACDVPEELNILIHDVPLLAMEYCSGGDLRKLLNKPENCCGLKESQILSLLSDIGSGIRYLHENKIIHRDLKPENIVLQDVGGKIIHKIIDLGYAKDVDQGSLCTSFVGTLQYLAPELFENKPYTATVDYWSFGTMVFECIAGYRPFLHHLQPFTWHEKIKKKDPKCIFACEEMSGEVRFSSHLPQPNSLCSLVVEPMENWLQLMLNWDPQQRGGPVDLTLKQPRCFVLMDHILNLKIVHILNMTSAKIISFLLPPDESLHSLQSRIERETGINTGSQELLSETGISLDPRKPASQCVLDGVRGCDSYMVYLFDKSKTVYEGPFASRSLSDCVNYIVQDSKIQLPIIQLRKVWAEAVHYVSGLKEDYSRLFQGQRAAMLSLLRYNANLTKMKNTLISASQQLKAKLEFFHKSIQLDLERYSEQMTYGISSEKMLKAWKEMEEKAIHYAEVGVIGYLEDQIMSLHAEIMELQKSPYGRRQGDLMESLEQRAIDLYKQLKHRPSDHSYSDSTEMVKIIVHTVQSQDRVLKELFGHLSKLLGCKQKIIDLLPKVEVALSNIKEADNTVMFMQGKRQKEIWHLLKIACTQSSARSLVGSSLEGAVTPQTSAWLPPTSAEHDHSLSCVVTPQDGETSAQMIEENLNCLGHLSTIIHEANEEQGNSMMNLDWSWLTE
As to the kind of experiment: in-house DELFIA kinase assay, IKKα. Format: biochemical.

The target in another data set is CDK9 (Homo sapiens, UniProt P50750). Nature of the data set: kinome profiling at 1 μM, CDK9. It is filed as biochemical. To be noted: read-out: % inhibition of CDK9.
CDK9, sequence (P50750 whole entry, species assumed): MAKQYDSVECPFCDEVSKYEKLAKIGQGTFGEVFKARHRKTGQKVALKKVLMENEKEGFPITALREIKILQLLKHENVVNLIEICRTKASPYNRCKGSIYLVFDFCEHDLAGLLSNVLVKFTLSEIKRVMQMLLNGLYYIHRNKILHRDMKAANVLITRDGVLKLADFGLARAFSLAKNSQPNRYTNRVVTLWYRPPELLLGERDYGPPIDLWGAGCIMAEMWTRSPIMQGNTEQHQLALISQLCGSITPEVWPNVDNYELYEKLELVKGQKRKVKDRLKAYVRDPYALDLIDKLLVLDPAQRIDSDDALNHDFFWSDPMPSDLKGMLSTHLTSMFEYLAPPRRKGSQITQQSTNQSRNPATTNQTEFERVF
CDK9, sequence (O60563 whole entry partner, species assumed): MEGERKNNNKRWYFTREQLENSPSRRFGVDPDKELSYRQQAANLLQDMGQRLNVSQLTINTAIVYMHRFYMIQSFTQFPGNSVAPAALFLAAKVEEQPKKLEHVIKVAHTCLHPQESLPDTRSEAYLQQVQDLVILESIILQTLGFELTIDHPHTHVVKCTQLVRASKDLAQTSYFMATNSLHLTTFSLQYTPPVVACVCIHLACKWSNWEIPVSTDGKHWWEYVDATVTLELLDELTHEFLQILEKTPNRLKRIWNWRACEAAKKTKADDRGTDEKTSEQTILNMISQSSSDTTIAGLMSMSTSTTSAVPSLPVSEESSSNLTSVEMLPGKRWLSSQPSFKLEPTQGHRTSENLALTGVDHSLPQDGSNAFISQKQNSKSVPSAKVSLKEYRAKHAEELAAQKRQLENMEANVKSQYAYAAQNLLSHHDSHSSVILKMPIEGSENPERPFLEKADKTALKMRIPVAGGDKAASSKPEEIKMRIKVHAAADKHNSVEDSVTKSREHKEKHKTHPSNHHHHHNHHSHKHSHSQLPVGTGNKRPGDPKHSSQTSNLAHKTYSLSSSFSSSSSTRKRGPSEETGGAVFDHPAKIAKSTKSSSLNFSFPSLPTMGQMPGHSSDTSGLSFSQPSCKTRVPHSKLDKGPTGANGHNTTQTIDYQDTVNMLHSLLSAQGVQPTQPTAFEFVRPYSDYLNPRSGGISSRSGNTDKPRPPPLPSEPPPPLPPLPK
Source text: as §1, §2

Data set [2] is described as follows: in vivo murine PK in CD1 mice. The arrangement: species or system mouse. To be noted: 10 mg/kg, mean. The protocol: […] Prior formulation/solubility assessment was performed in routine excipients e.g., DMSO: cyclodextrin or HMPC/Tween 80 . Intravenous time points were taken at 5 min, 15 min, 30 min, 1, 2, 4, 8, and 24 hours and intraperitoneal time points were taken at 15 min, 30 min, 1, 2, 4, 6, 8, and 24 hours. Blood samples were prepared by protein precipitation with methanol or acetonitrile containing internal standard and then measured quantitative bioanalysis by LC-MS/MS.

The target in data set [3] is T1, IKKα. As to the kind of experiment: activity and selectivity in cells. It is filed as cell-based.

CDK5, sequence (Q00535 whole entry, species assumed): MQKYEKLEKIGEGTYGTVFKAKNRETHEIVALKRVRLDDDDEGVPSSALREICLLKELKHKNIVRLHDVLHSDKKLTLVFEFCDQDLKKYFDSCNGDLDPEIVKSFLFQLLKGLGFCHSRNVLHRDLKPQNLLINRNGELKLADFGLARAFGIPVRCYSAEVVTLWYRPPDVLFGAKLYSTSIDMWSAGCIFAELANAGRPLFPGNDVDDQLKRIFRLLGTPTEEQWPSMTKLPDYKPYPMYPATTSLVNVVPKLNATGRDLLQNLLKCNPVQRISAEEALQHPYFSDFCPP
CDK5, sequence (Q15078 99-307 partner limits assumed, species assumed): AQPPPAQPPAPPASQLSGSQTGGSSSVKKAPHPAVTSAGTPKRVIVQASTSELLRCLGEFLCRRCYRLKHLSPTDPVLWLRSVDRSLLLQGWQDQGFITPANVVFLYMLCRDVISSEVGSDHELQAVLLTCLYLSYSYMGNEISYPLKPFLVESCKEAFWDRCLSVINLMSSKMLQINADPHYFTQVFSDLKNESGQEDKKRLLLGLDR

For the molecule `Nc1n[nH]c2ccc(-c3ccnc4[nH]c(-c5ccnc(OCc6ccccc6)c5)cc34)cc12` [6g SU1349, 5-(2-(2-(Benzyloxy)pyridin-4-yl)-1 H-pyrrolo[2,3-b]pyridin-4-yl)-1 H-indazol-3-amine], the inhibition at 1 µM on CDK5 was greater than 80%. Also, the “in vitro murine clearance, in words” value with mouse hepatocytes is “sufficiently low in vitro murine clearance”. Moreover, on IKKα [1], the Ki came out at 16 nM. Moreover, the inhibition at 1 µM on CDK9 is greater than 80%. In data set [2] (I.P.), the Cmax amounted to 199 ng/mL, the F stood at 9.3%, the “Terminal t1/2” value amounted to 3.02 h and the time to peak (Tmax) turned out to be 0.44 h. Also, in data set [2] (I.V.), the Clearance worked out at 16.7 mL/min/kg, the “Terminal t1/2” value is 4.18 h and the Vss turned out to be 0.39 L/kg.

For the molecule `Nc1n[nH]c2ccc(-c3ccnc4[nH]c(-c5cccc(OCc6ccccc6)c5)cc34)cc12` [5r SU1261, 5-(2-(3-(benzyloxy)phenyl)-1 H-pyrrolo[2,3-b]pyridin-4-yl)-1 H-indazol-3-amine], at IKKα [3], the “activity and selectivity in cells, in words” value was “activity and selectivity being recapitulated in cells”. Moreover, the inhibition at 1 µM at CDK5 (1 μM) and at CDK9 (1 μM) was greater than 80% in each case. On IKKα [1], this molecule gave a Ki of 10 nM.
